Data from patent US10221152B2 (priority 2013, dated 2019).
Counter-ions that a name gives are not always drawn.

Assays:
[1] = system: H1N1 T.R. (Tamiflu-resistant variant of H1N1 viral strain); type: cell-based, Influenza A virus
[2] = system: Tamiflu-resistant H1N1 viral strain rWSN^H274Y; type: cell-based, Influenza A virus

SMILES: COc1c(C)c2c(c(O)c1C/C=C(\C)CCC(=O)OCCN1CCOCC1)C(=O)OC2 [MPM, 2-morpholinoethyl(E)-6-(1,3-dihydro-4-hydroxy-6-methoxy-7-methyl-3-oxo-5-isobenzofuranyl)-4-methyl-4-hexenoate]
- Minimal Inhibitory Concentration (MIC), H1N1 T.R. [1]: 0.39 µg/mL

SMILES: COc1c(C)c2c(c(O)c1C/C=C(\C)CCC(=O)OCCN1CCOCC1)C(=O)OC2 [MPM-N, mycophenolate mofetil hydrochloride]
- concentration required to inhibit rWSN^H274Y (immunofluorescence staining) [2]: 5 µM

SMILES: NC(=O)c1ncn([C@@H]2O[C@H](CO)[C@@H](O)[C@H]2O)n1 [Ribavirin, reference compound]
- concentration required to inhibit rWSN^H274Y (immunofluorescence staining) [2]: 100 µM
